Experimental data from the supplement of paper PMC10307832.

Assays:
Experiment in all cases: relative viability (nuclei count vs DMSO), 5 days (fraction); higher = more cells survive
[1] = compound: C1CSC2=C(C(=O)N1)SC3=C2C=C(C=C3)O [kb NB 142-70] + CC(C)C[C@H](NC(=O)[C@H](Cc1ccccc1)NC(=O)c1cnccn1)B(O)O [Bortezomib] (partner 0.002 µM)
How it was run: (§1)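 Five library-drug doses in √10 steps were combined with a fixed anchor-drug dose, or a single drug was given alone, by pin tool to lung cancer cell lines in 1536-well plates the day after seeding. Nuclei were stained and counted after 5 days. Relative viability is the nuclei count in treated wells over that in vehicle wells, taken as the median of duplicate plates.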

[2] = compound: NCC(=O)Nc1ccc(-n2nc(C(F)(F)F)cc2-c2ccc3c(ccc4ccccc43)c2)cc1 + CCNC(=O)c1noc(-c2cc(C(C)C)c(O)cc2O)c1-c1ccc(CN2CCOCC2)cc1 [Luminespib] (partner 0.01 µM)
How it was run: as §1

[3] = compound: NCC(=O)Nc1ccc(-n2nc(C(F)(F)F)cc2-c2ccc3c(ccc4ccccc43)c2)cc1 + C[C@]1(O)C[C@@H](c2nc(-c3ccc4ccc(-c5ccccc5)nc4c3)c3c(N)nccn32)C1 [Linsitinib] (partner 1 µM)
How it was run: as §1

[4] = compound: NCC(=O)Nc1ccc(-n2nc(C(F)(F)F)cc2-c2ccc3c(ccc4ccccc43)c2)cc1 + Cc1nc(Nc2ncc(C(=O)Nc3c(C)cccc3Cl)s2)cc(N2CCN(CCO)CC2)n1 [Dasatinib] (partner 0.075 µM)
How it was run: as §1

NCI-H1792 was tested, and the relative viability ([1]; first compound 0.1 µM) was 0.992, the relative viability ([1]; first compound 1 µM) was 0.988 and the relative viability ([1]; first compound 3.162 µM) was 1.01. The relative viability ([2]; first compound 0.02 µM) was 0.337, the relative viability ([2]; first compound 0.06325 µM) was 0.583 and the relative viability ([2]; first compound 0.2 µM) was 0.552. The relative viability ([2]; first compound 0.6325 µM) was 0.585, the relative viability ([2]; first compound 2 µM) was 0.484 and the relative viability ([3]; first compound 0.02 µM) was 0.507. It also gave a relative viability ([3]; first compound 0.06325 µM) of 0.647, a relative viability ([3]; first compound 0.2 µM) of 0.549 and a relative viability ([3]; first compound 0.6325 µM) of 0.625. The relative viability ([3]; first compound 2 µM) was 0.552, the relative viability ([4]; first compound 0.02 µM) was 0.605 and the relative viability ([4]; first compound 0.2 µM) was 0.915. It also gave a relative viability ([4]; first compound 0.6325 µM) of 0.836 and a relative viability ([4]; first compound 2 µM) of 0.726.

NCI-H1915 showed a relative viability ([1]; first compound 0.1 µM) of 0.998, a relative viability ([1]; first compound 1 µM) of 1 and a relative viability ([1]; first compound 3.162 µM) of 0.85. It also gave a relative viability ([2]; first compound 0.02 µM) of 0.817, a relative viability ([2]; first compound 0.06325 µM) of 0.756 and a relative viability ([2]; first compound 0.2 µM) of 0.779. The relative viability ([2]; first compound 0.6325 µM) was 0.815, the relative viability ([2]; first compound 2 µM) was 0.769 and the relative viability ([3]; first compound 0.02 µM) was 1.05. The relative viability ([3]; first compound 0.06325 µM) was 1.07, the relative viability ([3]; first compound 0.2 µM) was 1.17 and the relative viability ([3]; first compound 0.6325 µM) was 1.09. It also gave a relative viability ([3]; first compound 2 µM) of 1.1, a relative viability ([4]; first compound 0.02 µM) of 0.26 and a relative viability ([4]; first compound 0.06325 µM) of 0.338. The relative viability ([4]; first compound 0.2 µM) was 0.341, the relative viability ([4]; first compound 0.6325 µM) was 0.318 and the relative viability ([4]; first compound 2 µM) was 0.363.

Work on NCI-H1975 yielded a relative viability ([1]; first compound 0.1 µM) of 0.33, a relative viability ([1]; first compound 1 µM) of 0.283 and a relative viability ([1]; first compound 3.162 µM) of 0.153. The relative viability ([2]; first compound 0.02 µM) was 0.125, the relative viability ([2]; first compound 0.06325 µM) was 0.29 and the relative viability ([2]; first compound 0.2 µM) was 0.236. For the same cell line, the relative viability ([2]; first compound 0.6325 µM) was 0.278, the relative viability ([2]; first compound 2 µM) was 0.247 and the relative viability ([3]; first compound 0.02 µM) was 0.927. It also gave a relative viability ([3]; first compound 0.06325 µM) of 0.92, a relative viability ([3]; first compound 0.2 µM) of 0.973 and a relative viability ([3]; first compound 0.6325 µM) of 0.983. It also gave a relative viability ([3]; first compound 2 µM) of 0.921, a relative viability ([4]; first compound 0.02 µM) of 0.318 and a relative viability ([4]; first compound 0.06325 µM) of 0.387. For the same cell line, the relative viability ([4]; first compound 0.2 µM) was 0.443, the relative viability ([4]; first compound 0.6325 µM) was 0.38 and the relative viability ([4]; first compound 2 µM) was 0.387.

NCI-H1993 showed a relative viability ([1]; first compound 0.1 µM) of 1.14, a relative viability ([1]; first compound 1 µM) of 1.07 and a relative viability ([1]; first compound 3.162 µM) of 1.17. It also gave a relative viability ([2]; first compound 0.02 µM) of 0.887, a relative viability ([2]; first compound 0.06325 µM) of 0.88 and a relative viability ([2]; first compound 0.2 µM) of 0.901. The relative viability ([2]; first compound 0.6325 µM) was 0.784, the relative viability ([2]; first compound 2 µM) was 0.957 and the relative viability ([3]; first compound 0.02 µM) was 0.81. For the same cell line, the relative viability ([3]; first compound 0.06325 µM) was 0.767, the relative viability ([3]; first compound 0.2 µM) was 0.718 and the relative viability ([3]; first compound 0.6325 µM) was 0.843. The relative viability ([3]; first compound 2 µM) was 0.724, the relative viability ([4]; first compound 0.02 µM) was 0.569 and the relative viability ([4]; first compound 0.06325 µM) was 0.696. For the same cell line, the relative viability ([4]; first compound 0.2 µM) was 0.526, the relative viability ([4]; first compound 0.6325 µM) was 0.688 and the relative viability ([4]; first compound 2 µM) was 0.631.

NCI-H2009 showed a relative viability ([1]; first compound 0.1 µM) of 1.09, a relative viability ([1]; first compound 1 µM) of 1.05 and a relative viability ([1]; first compound 3.162 µM) of 0.638. For the same cell line, the relative viability ([2]; first compound 0.02 µM) was 1.1, the relative viability ([2]; first compound 0.06325 µM) was 0.932 and the relative viability ([2]; first compound 0.2 µM) was 1.09. For the same cell line, the relative viability ([2]; first compound 0.6325 µM) was 1.03, the relative viability ([2]; first compound 2 µM) was 1.03 and the relative viability ([3]; first compound 0.02 µM) was 1.22. The relative viability ([3]; first compound 0.06325 µM) was 1.18, the relative viability ([3]; first compound 0.2 µM) was 1.23 and the relative viability ([3]; first compound 0.6325 µM) was 1.21. For the same cell line, the relative viability ([3]; first compound 2 µM) was 1.12, the relative viability ([4]; first compound 0.02 µM) was 0.314 and the relative viability ([4]; first compound 0.06325 µM) was 0.332. For the same cell line, the relative viability ([4]; first compound 0.2 µM) was 0.327, the relative viability ([4]; first compound 0.6325 µM) was 0.279 and the relative viability ([4]; first compound 2 µM) was 0.305.

NCI-H2023 gave a relative viability ([1]; first compound 0.1 µM) of 1.09, a relative viability ([1]; first compound 1 µM) of 1.02 and a relative viability ([1]; first compound 3.162 µM) of 0.668. It also gave a relative viability ([2]; first compound 0.02 µM) of 0.681, a relative viability ([2]; first compound 0.06325 µM) of 0.906 and a relative viability ([2]; first compound 0.2 µM) of 0.972. For the same cell line, the relative viability ([2]; first compound 0.6325 µM) was 0.739, the relative viability ([2]; first compound 2 µM) was 0.758 and the relative viability ([3]; first compound 0.02 µM) was 0.805. It also gave a relative viability ([3]; first compound 0.06325 µM) of 0.682, a relative viability ([3]; first compound 0.2 µM) of 0.712 and a relative viability ([3]; first compound 0.6325 µM) of 0.623. For the same cell line, the relative viability ([3]; first compound 2 µM) was 0.707, the relative viability ([4]; first compound 0.02 µM) was 0.649 and the relative viability ([4]; first compound 0.06325 µM) was 0.549. It also gave a relative viability ([4]; first compound 0.2 µM) of 0.618, a relative viability ([4]; first compound 0.6325 µM) of 0.6 and a relative viability ([4]; first compound 2 µM) of 0.552.

NCI-H2085 was tested, and the relative viability ([1]; first compound 0.1 µM) was 1, the relative viability ([1]; first compound 1 µM) was 1 and the relative viability ([1]; first compound 3.162 µM) was 0.709. For the same cell line, the relative viability ([2]; first compound 0.02 µM) was 0.537, the relative viability ([2]; first compound 0.06325 µM) was 0.473 and the relative viability ([2]; first compound 0.2 µM) was 0.466. The relative viability ([2]; first compound 0.6325 µM) was 0.445, the relative viability ([2]; first compound 2 µM) was 0.472 and the relative viability ([3]; first compound 0.02 µM) was 0.964. The relative viability ([3]; first compound 0.06325 µM) was 0.943, the relative viability ([3]; first compound 0.2 µM) was 1.03 and the relative viability ([3]; first compound 0.6325 µM) was 1.03. For the same cell line, the relative viability ([3]; first compound 2 µM) was 0.932, the relative viability ([4]; first compound 0.02 µM) was 0.291 and the relative viability ([4]; first compound 0.06325 µM) was 0.282. The relative viability ([4]; first compound 0.2 µM) was 0.292, the relative viability ([4]; first compound 0.6325 µM) was 0.263 and the relative viability ([4]; first compound 2 µM) was 0.341.

NCI-H2087 was tested, and the relative viability ([1]; first compound 0.1 µM) was 0.821, the relative viability ([1]; first compound 1 µM) was 0.88 and the relative viability ([1]; first compound 3.162 µM) was 0.755. For the same cell line, the relative viability ([2]; first compound 0.02 µM) was 0.151, the relative viability ([2]; first compound 0.06325 µM) was 0.19 and the relative viability ([2]; first compound 0.2 µM) was 0.214. The relative viability ([2]; first compound 0.6325 µM) was 0.138, the relative viability ([2]; first compound 2 µM) was 0.196 and the relative viability ([3]; first compound 0.02 µM) was 0.867. It also gave a relative viability ([3]; first compound 0.06325 µM) of 1.02, a relative viability ([3]; first compound 0.2 µM) of 1.03 and a relative viability ([3]; first compound 0.6325 µM) of 1.1. It also gave a relative viability ([3]; first compound 2 µM) of 0.988, a relative viability ([4]; first compound 0.02 µM) of 0.862 and a relative viability ([4]; first compound 0.06325 µM) of 0.854. It also gave a relative viability ([4]; first compound 0.2 µM) of 0.928, a relative viability ([4]; first compound 0.6325 µM) of 0.762 and a relative viability ([4]; first compound 2 µM) of 0.904.

NCI-H2126 was tested, and the relative viability ([1]; first compound 0.1 µM) was 1.11, the relative viability ([1]; first compound 1 µM) was 1.14 and the relative viability ([1]; first compound 3.162 µM) was 1.12. The relative viability ([2]; first compound 0.02 µM) was 0.904, the relative viability ([2]; first compound 0.06325 µM) was 0.981 and the relative viability ([2]; first compound 0.2 µM) was 0.871. For the same cell line, the relative viability ([2]; first compound 0.6325 µM) was 0.942, the relative viability ([2]; first compound 2 µM) was 0.943 and the relative viability ([3]; first compound 0.02 µM) was 0.7. For the same cell line, the relative viability ([3]; first compound 0.06325 µM) was 0.745, the relative viability ([3]; first compound 0.2 µM) was 0.687 and the relative viability ([3]; first compound 0.6325 µM) was 0.664. It also gave a relative viability ([3]; first compound 2 µM) of 0.763, a relative viability ([4]; first compound 0.02 µM) of 0.573 and a relative viability ([4]; first compound 0.06325 µM) of 0.664. For the same cell line, the relative viability ([4]; first compound 0.2 µM) was 0.667, the relative viability ([4]; first compound 0.6325 µM) was 0.702 and the relative viability ([4]; first compound 2 µM) was 0.602.
